Data from the supplement of paper PMC7661543.
± gives the standard deviation of the averaged measurements.

How the values were obtained:
Test in all cases: relative cell number vs DMSO control (72 h) (% of DMSO); higher = less growth inhibition (more cells)
Conditions in all cases: sgRNA knockout: sgNT
[1] = system: BT-20
Experimental: (§1)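 QMAP-Seq: a pool of 5 breast cancer cell lines (ZR-75-1, SKBR3, HCC-38, MDA-MB-231, BT-20), each carrying 12 doxycycline-inducible Cas9 sgRNA perturbations (11 knockouts plus non-targeting sgNT), was treated with compounds for 72 h at four 10-fold doses (10 nM-10 uM or 1 nM-1 uM range). Barcodes were amplified and sequenced, and cell number was interpolated from 293T spike-in standard curves. The result is expressed as % of the median of DMSO wells. Two biological replicates.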

[2] = system: HCC-38
Experimental: as §1

[3] = system: MDA-MB-231
Experimental: as §1

[4] = system: SKBR3
Experimental: as §1

[5] = system: ZR-75-1
Experimental: as §1

SMILES | relative cell number ([1]; 10 nM) | relative cell number ([1]; 100 nM) | relative cell number ([1]; 1000 nM) | relative cell number ([1]; 10000 nM) | relative cell number ([2]; 10 nM) | relative cell number ([2]; 100 nM) | relative cell number ([2]; 1000 nM) | relative cell number ([2]; 10000 nM) | relative cell number ([3]; 10 nM) | relative cell number ([3]; 100 nM) | relative cell number ([3]; 1000 nM) | relative cell number ([3]; 10000 nM) | relative cell number ([4]; 10 nM) | relative cell number ([4]; 100 nM) | relative cell number ([4]; 1000 nM) | relative cell number ([4]; 10000 nM) | relative cell number ([5]; 10 nM) | relative cell number ([5]; 100 nM) | relative cell number ([5]; 1000 nM) | relative cell number ([5]; 10000 nM)
Cc1nc(Nc2n[nH]c3c2CN(C(=O)N[C@H](CN(C)C)c2ccccc2)C3(C)C)c2sccc2n1 | 77.3 ± 21 | 46 ± 2.4 | 31.8 ± 6.6 | 11.6 ± 6.4 | 64.9 ± 5 | 54.5 ± 3.9 | 31.5 ± 1.2 | 13.5 ± 5.3 | 35.5 ± 11 | 27.3 ± 6.1 | 13.4 ± 6.6 | 4.59 ± 3.4 | 60.9 ± 22 | 52.5 ± 9 | 21.3 ± 0.55 | 3.5 ± 2.2 | 40.4 ± 14 | 49.8 ± 19 | 25.6 ± 4.3 | 3.38 ± 1.2
N#Cc1ccc(COC[C@H]2O[C@@H](n3c(NCc4ccc(Cl)c(Cl)c4)nc4c(N)ncnc43)[C@H](O)[C@@H]2O)cc1 | 108 ± 25 | 92.7 ± 6.8 | 91.1 ± 26 | 73.2 ± 18 | 90.8 ± 12 | 99.2 ± 8.1 | 99.1 ± 19 | 93.9 ± 15 | 83.77 ± 0.66 | 98.3 ± 7 | 115 ± 28 | 28.9 ± 0.7 | 105 ± 14 | 139 ± 29 | 106 ± 24 | 60.1 ± 4.3 | 105 ± 48 | 90.5 ± 13 | 64.7 ± 41 | 39.1 ± 0.67
O=C(NOCC(O)CO)c1cc(Br)c(F)c(F)c1Nc1ccc(I)cc1F (stereo not given) | 86.8 ± 14 | 86.9 ± 14 | 94.1 ± 9.3 | 83.5 ± 7.2 | 85.4 ± 6.8 | 83.2 ± 6.4 | 81.8 ± 3.8 | 86.2 ± 8.4 | 105 ± 17 | 75.8 ± 19 | 56.5 ± 25 | 47.5 ± 17 | 118 ± 48 | 123 ± 58 | 112 ± 36 | 83.5 ± 34 | 83.5 ± 48 | 76.9 ± 7.1 | 71.2 ± 4.6 | 56.5 ± 2.3
O=C1NC(=O)/C(=C/c2ccc3nccc(-c4ccncc4)c3c2)S1 | 92.4 ± 28 | 81.1 ± 9.8 | 62.2 ± 16 | 46.5 ± 18 | 95.7 ± 5 | 85.8 ± 11 | 87.5 ± 1.1 | 42.38 ± 0.22 | 79.8 ± 14 | 87.5 ± 0.95 | 96 ± 18 | 54.1 ± 2.6 | 112 ± 35 | 123 ± 53 | 90.9 ± 9.8 | 34.7 ± 6.4 | 78.3 ± 2.5 | 128 ± 6.6 | 99 ± 38 | 38.6 ± 7.8
O=c1cc(-c2cccc3c2Sc2ccccc2S3)oc(N2CCOCC2)c1 | 76.9 ± 1.4 | 116 ± 4.1 | 110.8 ± 0.94 | 109 ± 22 | 91.6 ± 7.9 | 79.2 ± 1.7 | 88.4 ± 18 | 82.7 ± 9.9 | 119 ± 4.4 | 77.3 ± 7.3 | 89.5 ± 12 | 46.8 ± 19 | 85.1 ± 17 | 94.4 ± 12 | 115 ± 17 | 54.3 ± 6.1 | 81.3 ± 28 | 98.8 ± 25 | 75.5 ± 26 | 58.3 ± 15
OCc1ccc(-c2ccc(-c3ccc(CO)s3)o2)s1 | 110 ± 32 | 77.9 ± 13 | 24.9 ± 1.5 | 12.3 ± 6.7 | 118 ± 10 | 119 ± 4.3 | 110 ± 18 | 63.6 ± 18 | 117 ± 27 | 118 ± 5.9 | 102 ± 7.9 | 40 ± 2.9 | 84.8 ± 34 | 15.6 ± 0.84 | 10.9 ± 4.8 | 5.65 ± 0.36 | 59.9 ± 6 | 9.97 ± 1.1 | 10.6 ± 4.2 | 4.09 ± 1.8
CC/C(=C(\c1ccc(O)cc1)c1ccc(OCCN(C)C)cc1)c1ccccc1 [4-Hydroxytamoxifen] | 96.8 ± 8.9 | 88.3 ± 28 | 106 ± 10 | 74.5 ± 21 | 94.8 ± 10 | 93.2 ± 5.7 | 90.4 ± 20 | 81.5 ± 14 | 95.8 ± 17 | 88.2 ± 7.9 | 100 ± 3.5 | 96.2 ± 9 | 104 ± 19 | 100 ± 45 | 80 ± 2.2 | 40.6 ± 10 | 95.8 ± 9.6 | 61.5 ± 4.8 | 70.2 ± 15 | 34.6 ± 8.6
